In one assay the target is JAK2 (Homo sapiens (Human), UniProt O60674). Put plainly: JAK2 Z-Lyte biochemical assay. The procedure:
Example 3. JAK2 Z-Lyte Biochemical Assay of the Compounds of the Present Disclosure
The JAK2 Z-Lyte biochemical assay was performed according to manufacturer's instructions (Life Technologies).

Assay [1] concerns cell lines or patient-derived xenografts from patients with CRLF2-rearranged B-ALL. To be noted: cited from earlier work.

For 21 molecules, IC50 results are on record in patent publication US12522583B2, “Benzimidazole derivatives and aza-benzimidazole derivatives as Janus kinase 2 inhibitors and uses thereof” (Dana-Farber Cancer Institute, Inc., priority 2018, dated 2026).

Structures are written as SMILES.

Sequence of JAK2 (O60674 whole entry): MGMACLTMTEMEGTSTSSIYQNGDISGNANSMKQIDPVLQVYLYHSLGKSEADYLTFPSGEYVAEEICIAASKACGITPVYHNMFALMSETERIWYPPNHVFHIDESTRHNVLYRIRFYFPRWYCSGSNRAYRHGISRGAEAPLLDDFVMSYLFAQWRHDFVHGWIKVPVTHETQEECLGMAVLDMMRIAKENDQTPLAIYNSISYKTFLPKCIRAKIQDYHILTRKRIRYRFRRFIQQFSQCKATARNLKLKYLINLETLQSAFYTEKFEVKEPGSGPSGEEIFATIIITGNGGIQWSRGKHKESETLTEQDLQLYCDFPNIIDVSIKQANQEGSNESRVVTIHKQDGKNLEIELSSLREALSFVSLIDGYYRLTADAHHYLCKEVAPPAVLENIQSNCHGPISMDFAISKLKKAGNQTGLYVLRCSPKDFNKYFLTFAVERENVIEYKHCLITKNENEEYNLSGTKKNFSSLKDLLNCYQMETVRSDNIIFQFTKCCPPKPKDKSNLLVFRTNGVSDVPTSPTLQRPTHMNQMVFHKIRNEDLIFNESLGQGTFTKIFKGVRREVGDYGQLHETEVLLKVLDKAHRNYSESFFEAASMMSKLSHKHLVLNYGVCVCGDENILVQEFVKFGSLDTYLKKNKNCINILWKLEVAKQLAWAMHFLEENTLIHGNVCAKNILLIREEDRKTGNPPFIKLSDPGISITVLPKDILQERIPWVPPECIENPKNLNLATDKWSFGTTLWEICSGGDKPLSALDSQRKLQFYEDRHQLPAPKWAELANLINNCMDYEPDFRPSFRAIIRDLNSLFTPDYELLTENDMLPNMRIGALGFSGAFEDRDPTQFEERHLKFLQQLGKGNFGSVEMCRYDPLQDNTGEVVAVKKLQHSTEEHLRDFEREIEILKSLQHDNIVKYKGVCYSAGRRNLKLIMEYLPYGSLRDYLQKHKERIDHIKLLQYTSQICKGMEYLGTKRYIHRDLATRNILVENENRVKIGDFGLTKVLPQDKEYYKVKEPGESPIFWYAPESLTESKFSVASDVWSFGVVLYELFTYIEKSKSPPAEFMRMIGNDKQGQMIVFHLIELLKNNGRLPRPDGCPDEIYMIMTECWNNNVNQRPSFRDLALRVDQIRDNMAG

At JAK2, `CCN1CCN(Cc2ccc(Nc3nc4ccc(Oc5ccnc(NC(=O)CCN(C)C)c5)cc4n3C)cc2C(F)(F)F)CC1` [Compound I-21, 3-(dimethylamino)-N-(4-(2-(4-((4-ethylpiperazin-1-yl)methyl)-3-(trifluoromethyl)phenylamino)-3-methyl-3H-benzo[d]imidazol-5-yloxy)pyridin-2-yl)propanamide] displayed a half-inhibitory concentration (IC50) of 4.93 µM.
The same measure, in the same setting: under `CC(=O)Nc1cc(Oc2ccc3nc(Nc4ccc(F)cc4F)n(C)c3n2)ccn1` [Compound I-12, N-(4-(2-(2,4-difluorophenylamino)-3-methyl-3H-imidazo[4,5-b]pyridin-5-yloxy)pyridin-2-yl)acetamide] stands above 10 µM; under `CCN1CCN(Cc2ccc(Nc3nc4cc(Oc5ccnc(NC(C)=O)c5)ccc4n3C)cc2C(F)(F)F)CC1` [Compound I-7, N-(4-(2-(4-((4-ethylpiperazin-1-yl)methyl)-3-(trifluoromethyl)phenylamino)-1-methyl-1H-benzo[d]imidazol-5-yloxy)pyridin-2-yl)acetamide], 8.53 µM; under `Cn1c(Nc2ccc(F)cc2F)nc2ccc(Oc3ccc(O)nc3)cc21` [Compound I-23], above 10 µM.
The same measure, in the same setting: the same measure for `CCN1CCN(Cc2ccc(Nc3nc4ccc(Oc5ccnc(NC(=O)C6CCN(C)CC6)c5)cc4n3C)cc2C(F)(F)F)CC1` [Compound I-19, N-(4-(2-(4-((4-ethylpiperazin-1-yl)methyl)-3-(trifluoromethyl)phenylamino)-3-methyl-3H-benzo[d]imidazol-5-yloxy)pyridin-2-yl)-1-methylpiperidine-4-carboxamide]: 8.03 µM; for `CCN1CCN(Cc2cc(Nc3nc4ccc(Oc5ccnc(NC(C)=O)c5)cc4n3C)cc(C(F)(F)F)c2)CC1` [Compound I-3, N-(4-(2-(3-((4-ethylpiperazin-1-yl)methyl)-5-(trifluoromethyl)phenylamino)-1-methyl-1H-benzo[d]imidazol-6-yloxy)pyridin-2-yl)acetamide]: 0.957 µM.
On the same count and under the same terms, the same measure for `CCN1CCN(Cc2cc(Nc3nc4cc(Oc5ccnc(NC(C)=O)c5)ccc4n3C)cc(C(F)(F)F)c2)CC1` [Compound I-9, N-(4-(2-(3-((4-ethylpiperazin-1-yl)methyl)-5-(trifluoromethyl)phenylamino)-1-methyl-1H-benzo[d]imidazol-5-yloxy)pyridin-2-yl)acetamide]: 2.14 µM; for `CC(=O)Nc1cc(Oc2ccc3c(c2)nc(Nc2ccc(F)cc2F)n3C)ccn1` [Compound I-8, N-(4-(2-(2,4-difluorophenylamino)-1-methyl-1H-benzo[d]imidazol-5-yloxy)pyridin-2-yl)acetamide]: 0.0925 µM.
At JAK2, `CCN1CCN(Cc2ccc(Nc3nc4ccc(Oc5ccnc(N)c5)cc4n3C)cc2C(F)(F)F)CC1` [Compound I-20, 6-(2-aminopyridin-4-yloxy)-N-(4-((4-ethylpiperazin-1-yl)methyl)-3-(trifluoromethyl)phenyl)-1-methyl-1H-benzo[d]imidazol-2-amine] gave a 50% inhibitory concentration (IC50) of 1.95 µM.
The same measure, in the same setting: under `CC(=O)Nc1cc(Oc2ncc3[nH]c(Nc4ccc(F)cc4F)nc3n2)ccn1` [Compound I-10, N-(4-(8-(2,4-difluorophenylamino)-7H-purin-2-yloxy)pyridin-2-yl)acetamide] stands above 10 µM.
On the same count and under the same terms, under `CCN1CCN(Cc2ccc(Nc3nc4ccc(Oc5ccnc(NC(C)=O)c5)nc4n3C)cc2C(F)(F)F)CC1` [Compound I-15, N-(4-((2-((4-((4-ethylpiperazin-1-yl)methyl)-3-(trifluoromethyl)phenyl)amino)-3-methyl-3H-imidazo[4,5-b]pyridin-5-yl)oxy)pyridin-2-yl)acetamide] stands 1.34 µM; under `CCN1CCN(Cc2ccc(Nc3nc4ccc(Oc5ccc(O)nc5)cc4n3C)cc2C(F)(F)F)CC1` [Compound I-22, 5-((2-((4-((4-ethylpiperazin-1-yl)methyl)-3-(trifluoromethyl)phenyl)amino)-1-methyl-1H-benzo[d]imidazol-6-yl)oxy)pyridin-2(1H)-one], above 10 µM.
For the molecule `CCN1CCN(Cc2ccc(Nc3nc4nc(Oc5ccnc(NC(C)=O)c5)ncc4[nH]3)cc2C(F)(F)F)CC1` [Compound I-16, N-(4-((8-((4-((4-ethylpiperazin-1-yl)methyl)-3-(trifluoromethyl)phenyl)amino)-7H-purin-2-yl)oxy)pyridin-2-yl)acetamide], the 50% inhibitory concentration (IC50) against JAK2 was above 10 µM.
On the same count and under the same terms, under `CC(=O)Nc1cc(Oc2ccc3nc(Nc4ccc(F)cc4F)n(C)c3c2)ccn1` [Compound I-1, N-(4-(2-(2,4-difluorophenylamino)-1-methyl-1H-benzo[d]imidazol-6-yloxy)pyridin-2-yl)acetamide] stands 3.08 µM.
Turning to `CCN1CCN(Cc2ccc(Nc3nc4ccc(Oc5ccnc(NC(=O)C6CCOCC6)c5)cc4n3C)cc2C(F)(F)F)CC1` [Compound I-18, N-(4-(2-(4-((4-ethylpiperazin-1-yl)methyl)-3-(trifluoromethyl)phenylamino)-3-methyl-3H-benzo[d]imidazol-5-yloxy)pyridin-2-yl)-tetrahydro-2H-pyran-4-carboxamide], the 50% inhibitory concentration (IC50) on JAK2 was 6 µM.
On the same count and under the same terms, under `CC(=O)Nc1cc(Oc2ccc3nc(Nc4ccc(F)cc4F)nn3c2)ccn1` [Compound I-11, N-(4-(2-(2,4-difluorophenylamino)-[1,2,4]triazolo[1,5-a]pyridin-6-yloxy)pyridin-2-yl)acetamide] stands above 10 µM.
As for `N#CC[C@H](C1CCCC1)n1cc(-c2ncnc3[nH]ccc23)cn1` [Ruxolitinib], in assay [1], the half-maximal inhibitory concentration (IC50) is above 20 µM.
For `CC(=O)Nc1cc(Oc2ccc3nc(Nc4ccc(F)cc4F)[nH]c3c2C)ccn1` [Compound I-4, N-(4-(2-(2,4-difluorophenylamino)-4-methyl-1H-benzo[d]imidazol-5-yloxy)pyridin-2-yl)acetamide], it took 0.449 µM to reach half-maximal inhibition at JAK2 (IC50).
`CCN1CCN(Cc2ccc(Nc3nc4ccc(Oc5ccnc(NC(C)=O)c5)c(C)c4[nH]3)cc2C(F)(F)F)CC1` [Compound I-5, N-(4-(2-(4-((4-ethylpiperazin-1-yl)methyl)-3-(trifluoromethyl)phenylamino)-4-methyl-1H-benzo[d]imidazol-5-yloxy)pyridin-2-yl)acetamide] gave a half-inhibitory concentration (IC50) on JAK2 of 1.05 µM.
The same measure, in the same setting: under `COC(=O)c1cc(Oc2ccc3nc(Nc4ccc(F)cc4F)n(C)c3n2)ccn1` [Compound I-13, Methyl 4-((2-((2,4-difluorophenyl)amino)-3-methyl-3H-imidazo[4,5-b]pyridin-5-yl)oxy) picolinate] stands above 10 µM; under `Cn1c(Nc2ccc(F)cc2F)nc2ccc(Oc3ccnc(C(=O)O)c3)nc21` [Compound I-14, 4-((2-((2,4-difluorophenyl)amino)-3-methyl-3H-imidazo[4,5-b]pyridin-5-yl)oxy)picolinic acid], above 10 µM.
